Here are results for two compounds from patent US8629132B2, “Kinase inhibitors” (Genosco, priority 2009, dated 2014).

The target of one assay is T1, PYK2 (Homo sapiens, UniProt Q14289).
T1 construct: Purified full-length human SYK, ZAP70, PIM1, PYK2; purchased Carna Biosciences
As to the kind of experiment: Kinase inhibition assay: PYK2. To be noted: at 1 μM concentration. The assay is classed as biochemical. The protocol: Compounds of the present invention were tested for their capacity to inhibit a kinase panel which includes, but are not limited to, spleen tyrosine kinase (SYK), zeta-chain-associated protein kinase 70 (ZAP70), PTK2B protein tyrosine kinase 2 (PYK2), focal adhesion kinase (FAK), provirus integration of maloney kinase 1 (PIM1), rearranged during transfection kinase (RET), Fms-like tyrosine kinase 3 (FLT3), Janus kinase 2 (JAK2), and leucine-rich repeat kinase 2 (LRRK2).
Inhibition of SYK, ZAP70, PYK2, FAK, PIM1, RET, FLT3, JAK2 and LRRK2 Kinase Activity
Compounds of the invention were initially diluted to 10 mM in 100% DMSO (CALBIOCHEM™) for storage and made into kinase buffer solution to create a compound concentration ranging from 1 uM and 10 uM. Serial dilutions of compounds of the invention were dispensed into a 96-well plate (GREINER BIOSCIENCES™) at 6 μL each. Purified full-length human SYK, ZAP70, PIM1, PYK2 and truncated human FAK, RET, FLT3, JAK2, and LRRK2 (CARNA BIOSCIENCES™) were diluted in kinase buffer and added to the compound solutions and pre-incubated for 30 minutes at room temperature (1 hour for PYK2). […] The reaction mixture was incubated for 1 hour (2 hours for PYK2). Following the incubation, the stop solution made with EDTA, water, and Lance detection buffer ([…]™) was added (12μL each) to stop phosphorylation. […] The IC50 value of test compound was calculated at Gradpad Prism 5 unless specified otherwise.

The next assay concerns the target JAK2 (Homo sapiens, UniProt O60674). As to the kind of experiment: In vitro kinase inhibition profile (Ambit Biosciences). It counts as binding. Also on record: JAK2(JH1domain-catalytic); purchased Ambit Biosciences. To be noted: reported as percent control, lower numbers indicate stronger activities. How it is done:
Up to 518 different kinases have been identified in humans. To determine the scope of inhibitory effects of a representative compound of Formula (I) on known kinases, Compound 82 was tested against 104 commercially available kinases (Ambit Biosciences™). 104 kinases included ABL1(E255K)-phosphorylated, ABL1(T315I)-phosphorylated, ABL1-phosphorylated, ACVR1B, ADCK3, AKT1, AKT2, ALK, AURKA, AURKB, AXL, BMPR2, BRAF, BRAF(V600E), BTK, CDK11, CDK2, CDK3, CDK7, CDK9, CHEK1, CSF1R, CSNK1D, CSNK1G2, DCAMKL1, DYRK1B, EGFR, EGFR(L858R), EPHA2, ERBB2, ERBB4, ERK1, FAK, FGFR2, FGFR3, FLT1, FLT3, FLT4, GSK3B, IGF1R, IKK-α, IKK-β, INSR, JAK2(JH1domain-catalytic), JAK3 (JH1 domain-catalytic), JNK 1, JNK2, JNK3, KIT, KIT(D816V), KIT(V559D,T6701), LKB1, LRRK2, LRRK2(G2019S), MAP3K4, MAPKAPK2, MARKS, MEK1, MEK2, MET, MKNK1, MKNK2, MLK1, MTOR, p38-alpha, p38-beta, PAK1, PAK2, PAK-4, PCTK1, PDGFRA, PDGFRB, PDPK1, PIK3C2B, PIK3CA, PIK3CG, PIM1, PIM2, PIM3, PKAC-alpha, PLK1, PLK3, PLK4, PRKCE, PYK2, RAF1, RET, R10K2, ROCK2, RSK2, SNARK, SRC, SRPK3, SYK, TAK1, TGFBR1, TIE2, TRKA, TSSK1B, TYK2(JH1domain-catalytic), ULK2, VEGFR2, YANK3 and ZAP70.
Inhibition activity of Compound 82 was reported as percent control where lower numbers indicate stronger activities.

Assay [1] relates to TNF-α release in THP-1 cells. The assay can be described thus: SYK dependent TNF-α release assay (IgG stimulation). It counts as cell-based, human. How it is done:
Compounds of the present invention are tested for their effects on TNF-α release in human acute monocytic leukimia cell line (THP-1) to illustrate potential efficacy at the cellular level. TNF-α is a cytokine involved in systemic inflammation and is a member of a group of cytokines that stimulate the acute phase reaction. The primary role of TNF-α is in the regulation of immune cells. TNF-α is known to induce apoptotic cell death and inflammation and to inhibit early tumorigenesis and viral replication. Dysregulation and, in particular, overproduction of TNF-α have been implicated in a variety of human diseases, autoimmune disease, inflammation, arthritis and cancer.
Production or release of TNF-α is controlled by type of stimulus to which the cell responds. SYK activity is involved in mediating TNF-α production. When stimulated by IgG, cells increase TNF-α production in a SYK dependent manner (i.e., the SYK dependent pathway). However, when stimulated by lipopolysaccharide (LPS), they produce TNF-α in a SYK independent manner.
Compounds of the invention were tested for their TNF-α release effect on THP-1 cells. For SYK dependent TNF-α release assay (i.e., via IgG stimulation), THP-1 cells derived from human monocytic cells were obtained from the American Type Culture Collection (ATCC, Manassas, Va.). This cell line was maintained with an Roswell Park Memorial Institute (RPMI) medium (GIBCO™) containing 10 fetal bovine serum (FBS; GIBCO™) and 0.05 mM 2-mercaptoethanol. The THP-1 cells were seeded at 1×10^5 cells/100 μL/well into human IgG (10 μg/well, INVITROGENT™)-coated 96 well culture plate, and serially diluted compound was then added. After an 18-hour incubation period at 37° C., supernatants were collected for the determination of the TNF-α level by enzyme-linked immunosorbent assay (ELISA), and the remaining cells were subjected to an MTT (yellow tetrazolium salt) assay to determine the cytotoxic effects of compound.

SMILES strings stand for the structures.

T1 sequence (Q14289 whole entry): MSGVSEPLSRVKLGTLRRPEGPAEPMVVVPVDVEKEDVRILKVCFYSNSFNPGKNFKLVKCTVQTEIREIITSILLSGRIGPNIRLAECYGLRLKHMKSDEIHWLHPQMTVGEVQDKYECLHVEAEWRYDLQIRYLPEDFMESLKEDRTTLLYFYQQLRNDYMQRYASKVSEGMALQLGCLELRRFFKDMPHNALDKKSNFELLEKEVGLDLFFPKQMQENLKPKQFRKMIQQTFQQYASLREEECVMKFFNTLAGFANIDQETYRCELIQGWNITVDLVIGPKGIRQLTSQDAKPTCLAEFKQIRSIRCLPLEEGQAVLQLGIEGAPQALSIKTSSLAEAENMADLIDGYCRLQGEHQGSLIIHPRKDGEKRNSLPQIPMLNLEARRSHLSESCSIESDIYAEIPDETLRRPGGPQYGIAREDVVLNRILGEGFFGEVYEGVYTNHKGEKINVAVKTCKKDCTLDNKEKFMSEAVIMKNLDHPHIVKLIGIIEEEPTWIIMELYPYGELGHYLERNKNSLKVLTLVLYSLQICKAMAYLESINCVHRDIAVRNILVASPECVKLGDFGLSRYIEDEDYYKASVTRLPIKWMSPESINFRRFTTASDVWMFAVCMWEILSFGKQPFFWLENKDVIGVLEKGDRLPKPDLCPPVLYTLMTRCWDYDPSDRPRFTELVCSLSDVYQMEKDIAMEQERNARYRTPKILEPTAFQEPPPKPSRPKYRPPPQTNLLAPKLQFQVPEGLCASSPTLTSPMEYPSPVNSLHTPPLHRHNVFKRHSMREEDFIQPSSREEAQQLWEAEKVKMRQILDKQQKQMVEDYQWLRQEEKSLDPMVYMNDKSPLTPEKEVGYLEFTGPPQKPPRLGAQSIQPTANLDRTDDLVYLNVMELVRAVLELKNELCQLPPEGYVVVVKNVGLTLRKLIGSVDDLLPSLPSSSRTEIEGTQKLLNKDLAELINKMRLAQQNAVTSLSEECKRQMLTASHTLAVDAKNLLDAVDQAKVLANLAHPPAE
Chain of JAK2 (O60674 849-1124 limits assumed): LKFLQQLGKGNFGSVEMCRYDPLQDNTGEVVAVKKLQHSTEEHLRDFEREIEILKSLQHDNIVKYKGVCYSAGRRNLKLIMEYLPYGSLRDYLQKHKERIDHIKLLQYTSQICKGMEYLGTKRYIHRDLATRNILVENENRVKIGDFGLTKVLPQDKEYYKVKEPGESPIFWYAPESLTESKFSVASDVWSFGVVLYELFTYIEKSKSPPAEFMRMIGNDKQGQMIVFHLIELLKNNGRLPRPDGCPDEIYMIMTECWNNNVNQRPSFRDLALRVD

In general, inhibition refers to how much of the control response was suppressed. `COc1cc(Nc2ncc(C)c(-n3cc(C)c(CO)c3)n2)cc(OC)c1OC` [Compound 21, (4-methyl-1-(5-methyl-2-(3,4,5-trimethoxyphenylamino)pyrimidin-4-yl)-1H-pyrrol-3-yl)methanol] came in with an inhibition at 1 µM on PYK2 of 78.2%.
On to `Cc1cc(C)cc(Nc2ncc(F)c(-n3cc(C)c(CN4CC[C@@H](O)C4)c3)n2)c1` [Compound 82, (R)-1-((1-(2-(3,5-dimethylphenyl-amino)-5-fluoropyrimidin-4-yl)-4-methyl-1H-pyrrol-3-yl)methyl) pyrrolidin-3-ol], for which the “% of control” value at JAK2 is 3%. Further, the inhibition at 0.3 µM in assay [1] (Homo sapiens, THP-1 cells, IgG stimulation, 0.3 μM, 18-hour incubation) was found to be 49.2%. Also, the inhibition at 1 µM in assay [1] (Homo sapiens, THP-1 cells, IgG stimulation, 1 μM, 18-hour incubation) came to 91.4%. Besides, the “percentage inhibition of TNF-α release compared with R406” value in assay [1] (IgG stimulated release, 0.3 μM) is “greater that those exhibited by R406”.
